Literature values, collected in patent publication US6692771B2, “Emulsions as solid dosage forms for oral administration” (CIMA Labs Inc., priority 2001, dated 2004).

Details: orally administered dose; average value given in parentheses

| Compound | average bioavailability |
| --- | --- |
| Oc1ccc2c3c1O[C@H]1[C@@H](O)CC[C@@]4(O)[C@@H](C2)N(CC2CCC2)CC[C@]314 [nalbuphine] | approximately 17% |
| methyldopa | 25% |
